Data from patent US4495179A, “A51568 Antibiotic and process for producing thereof” (Eli Lilly and Company, priority 1983, dated 1985).
In brackets after ≈: the same amount, converted by molar mass.

What was measured:
Propionibacterium acnes = assay: Agar-dilution MIC, anaerobic bacteria (Table 10); format: cell-based; details: Propionibacterium acnes 79
Klebsiella pneumoniae = assay: Standard agar-dilution assay, aerobic bacteria (Table 9); format: cell-based
Experimental: (§1) The in vitro activity of antibiotic A51568 against a number of aerobic bacteria has been determined using a standard agar-dilution assay. The results, determined by reading the end point after 24 hours, are recorded in Table 9, which follows.

Streptococcus pyogenes = assay: as above; format: cell-based; details: Streptococcus pyogenes C203, end point after 24 hours
Experimental: as §1

Escherichia coli = assay: as above; format: cell-based
Experimental: as §1

Streptococcus pneumoniae = assay: as above; format: cell-based; details: Streptococcus pneumoniae Park I, end point after 24 hours
Experimental: as §1

Staphylococcus aureus = assay: as above; format: cell-based
Experimental: as §1

Haemophilus influenzae = assay: as above; format: cell-based
Experimental: as §1

[1] = test system: Staphylococcus epidermidis; assay: as above; format: cell-based
Experimental: as §1

[2] = test system: Streptococcus sp. Group D; assay: as above; format: cell-based
Experimental: as §1

Bacteroides vulgatis = assay: Agar-dilution MIC, anaerobic bacteria (Table 10); format: cell-based; details: Bacteroides vulgatis 1211
[3] = test system: Peptococcus asaccharolyticus; assay: Agar-dilution MIC, anaerobic bacteria (Table 10); format: cell-based; details: Peptococcus asaccharolyticus 1302
Bacteroides fragilis = assay: Agar-dilution MIC, anaerobic bacteria (Table 10); format: cell-based
Clostridium difficile [4] = assay: Agar-dilution MIC, anaerobic bacteria (Table 10); format: cell-based; details: Clostridium difficile 2994
Source text: (§2) Antibiotic A51568 has been tested and found to be active against a number of anaerobic bacteria, as recorded in Table 10, which follows, the MIC values having been determined by the agar-dilution method.

Clostridium septicum = assay: Agar-dilution MIC, anaerobic bacteria (Table 10); format: cell-based; details: Clostridium septicum 1128
Source text: as §2

Bacteroides corrodens = assay: Agar-dilution MIC, anaerobic bacteria (Table 10); format: cell-based; details: Bacteroides corrodens 1874
Peptococcus prevoti = assay: Agar-dilution MIC, anaerobic bacteria (Table 10); format: cell-based; details: Peptococcus prevoti 1281
[5] = test system: Fusobacterium necrophorum; assay: Agar-dilution MIC, anaerobic bacteria (Table 10); format: cell-based; details: Fusobacterium necrophorum 6054A
Fusobacterium symbiosum = assay: Agar-dilution MIC, anaerobic bacteria (Table 10); format: cell-based; details: Fusobacterium symbiosum 1470
[6] = test system: Peptostreptococcus anaerobius; assay: Agar-dilution MIC, anaerobic bacteria (Table 10); format: cell-based; details: Peptostreptococcus anaerobius 1428
Strep. pyogenes C203 = assay: In vivo protection against experimental bacterial infection; details: mice, two doses subcutaneously
Experimental: (§3) Antibiotic A51568 has shown in vivo antimicrobial activity against experimental bacterial infections. When two doses of test compound were administered subcutaneously to mice in illustrative infections, the activity observed is measured as an ED50 [effective dose in mg/kg to protect fifty percent of the test animals: See Warren Wick et al., J. Bacteriol. 81, 233-235 (1961)]. The ED50 values observed for antibiotic A51568 are as follows: […]

Strep. pneumoniae Park I = assay: as above; details: mice, two doses subcutaneously
Experimental: as §3

Staph. aureus 3055 = assay: as above; details: mice, Staph. aureus 3055 infection, two doses subcutaneously
Experimental: as §3

Clostridium perfringens = format: cell-based; details: Clostridium perfringens 81; Table 10
Clostridium difficile [7] = assay: Agar-dilution MIC, Clostridium difficile strains (Table 11); format: cell-based
Source text: Antibiotic A51568 is also active against a number of strains of Clostridium difficile, as determined by the agar-dilution method.

CC(C)C[C@@H](N)C(=O)N[C@@H]1C(=O)N[C@@H](CC(N)=O)C(=O)N[C@H]2C(=O)N[C@H]3C(=O)N[C@H](C(=O)N[C@H](C(=O)O)c4cc(O)cc(O)c4-c4cc3ccc4O)[C@H](O)c3ccc(c(Cl)c3)Oc3cc2cc(c3O[C@@H]2O[C@H](CO)[C@@H](O)[C@H](O)[C@H]2O[C@H]2C[C@](C)(N)C(O)[C@H](C)O2)Oc2ccc(cc2Cl)[C@H]1O (stereo partly shown) [A51568, demethylvancomycin]
MIC (Propionibacterium acnes): 1 µg/mL (≈ 0.697 µM)
MIC (Klebsiella pneumoniae; Klebsiella pneumoniae KAE, end point after 24 hours): > 128 µg/mL
MIC (Klebsiella pneumoniae; Klebsiella pneumoniae X26, end point after 24 hours): > 128 µg/mL
MIC (Streptococcus pyogenes): 1 µg/mL (≈ 0.697 µM)
MIC (Escherichia coli; Escherichia coli EC14, end point after 24 hours): > 128 µg/mL
MIC (Escherichia coli; Escherichia coli N10, end point after 24 hours): > 128 µg/mL
MIC (Escherichia coli; Escherichia coli TEM, end point after 24 hours): 128 µg/mL (≈ 89.2 µM)
MIC (Streptococcus pneumoniae): 0.5 µg/mL (≈ 0.348 µM)
MIC (Staphylococcus aureus; Staphylococcus aureus 3055, end point after 24 hours): 1 µg/mL (≈ 0.697 µM)
MIC (Staphylococcus aureus; Staphylococcus aureus S13E, end point after 24 hours): 1 µg/mL (≈ 0.697 µM)
MIC (Staphylococcus aureus; Staphylococcus aureus V41, end point after 24 hours): 1 µg/mL (≈ 0.697 µM)
MIC (Staphylococcus aureus; Staphylococcus aureus X400, end point after 24 hours): 2 µg/mL (≈ 1.39 µM)
MIC (Haemophilus influenzae; Haemophilus influenzae (resistant) R252, end point after 24 hours): 128 µg/mL (≈ 89.2 µM)
MIC (Haemophilus influenzae; Haemophilus influenzae (sensitive) Holt, end point after 24 hours): 64 µg/mL (≈ 44.6 µM)
MIC ([1]; Staphylococcus epidermidis EPI1, end point after 24 hours): 2 µg/mL (≈ 1.39 µM)
MIC ([1]; Staphylococcus epidermidis EPI2, end point after 24 hours): 1 µg/mL (≈ 0.697 µM)
MIC ([2]; Streptococcus sp. Group D 9960, end point after 24 hours): 4 µg/mL (≈ 2.79 µM)
MIC ([2]; Streptococcus sp. Group D X66, end point after 24 hours): 1 µg/mL (≈ 0.697 µM)
MIC (Bacteroides vulgatis): 32 µg/mL (≈ 22.3 µM)
MIC [3]: 16 µg/mL (≈ 11.1 µM)
MIC (Bacteroides fragilis; Bacteroides fragilis 111): 32 µg/mL (≈ 22.3 µM)
MIC (Bacteroides fragilis; Bacteroides fragilis 1877): 32 µg/mL (≈ 22.3 µM)
MIC (Bacteroides fragilis; Bacteroides fragilis 1936B): 32 µg/mL (≈ 22.3 µM)
MIC (Clostridium difficile [4]): 2 µg/mL (≈ 1.39 µM)
MIC (Clostridium septicum): 1 µg/mL (≈ 0.697 µM)
MIC (Bacteroides corrodens): 32 µg/mL (≈ 22.3 µM)
MIC (Peptococcus prevoti): 32 µg/mL (≈ 22.3 µM)
MIC [5]: 2 µg/mL (≈ 1.39 µM)
MIC (Fusobacterium symbiosum): 2 µg/mL (≈ 1.39 µM)
MIC [6]: 1 µg/mL (≈ 0.697 µM)
ED50 (effective dose to protect fifty percent of the test animals) (Strep. pyogenes C203): 3.03 mg/kg × 2
ED50 (effective dose to protect fifty percent of the test animals) (Strep. pneumoniae Park I): 2.71 mg/kg × 2
ED50 (effective dose to protect fifty percent of the test animals) (Staph. aureus 3055): 1.79 mg/kg × 2
MIC (Clostridium perfringens): 1 µg/mL (≈ 0.697 µM)
MIC (Clostridium difficile [7]; Clostridium difficile 78): 2 µg/mL (≈ 1.39 µM)
MIC (Clostridium difficile [7]; Clostridium difficile 107B): 2 µg/mL (≈ 1.39 µM)
MIC (Clostridium difficile [7]; Clostridium difficile 111F): 2 µg/mL (≈ 1.39 µM)
MIC (Clostridium difficile [7]; Clostridium difficile 1153): 2 µg/mL (≈ 1.39 µM)
MIC (Clostridium difficile [7]; Clostridium difficile 2634): 2 µg/mL (≈ 1.39 µM)
MIC (Clostridium difficile [7]; Clostridium difficile 3424-5B): 2 µg/mL (≈ 1.39 µM)
MIC (Clostridium difficile [7]; Clostridium difficile 3816): 2 µg/mL (≈ 1.39 µM)
MIC (Clostridium difficile [7]; Clostridium difficile 3950D): 2 µg/mL (≈ 1.39 µM)
MIC (Clostridium difficile [7]; Clostridium difficile 6890): 2 µg/mL (≈ 1.39 µM)
MIC (Clostridium difficile [7]; Clostridium difficile 8484): 2 µg/mL (≈ 1.39 µM)
MIC (Clostridium difficile [7]; Clostridium difficile A-194): 2 µg/mL (≈ 1.39 µM)
MIC (Clostridium difficile [7]; Clostridium difficile A-195): 2 µg/mL (≈ 1.39 µM)
